This note sets out measurements from patent US12275685B2, “Oligo-benzamide analogs and their use in cancer treatment” (Board of Regents, The University of Texas System, priority 2018, dated 2025).

The structures appear in SMILES notation. Where only a bound is given, the exact number is not on record here.

Assay [1] has as its system nuclear receptor (NR) interaction with its coregulator proteins. The experiment in a line: Inhibition of nuclear receptor-coregulator interaction in cancer cells. Format: cell-based. How it is done:
The present oligo-benzamide analogs are extremely potent and effective on various cancer cells including breast cancer, ovarian cancer, and pancreatic cancer. These compounds have a unique mode of action compared to existing therapeutic treatments to these diseases. The compounds are very potent with IC50 values of 10-50 nM for growth inhibition. TK41 is a tris-benzamide analog and it inhibits nuclear receptor (NR) interaction with its coregulator proteins in cancer cells with high potency (IC50 is approximately 100 nM; FIGS. 1-4).

Assay [2] concerns TNBC cells. The experiment in a line: ER stress induction in TNBC cells (electron microscopy, western blots). Format: cell-based. How it is done:
FIGS. 36A-H: ERX-41 induces ER stress in TNBC. (FIGS. 36A-C) Volcano plots show the relative effect of 4 h treatment of 1 μM ERX-41 compared to vehicle in MDA-MB-231 (FIG. 36A), BT-549 (FIG. 36B) TNBC and HMEC (FIG. 36C) cell lines. (FIG. 36D) Gene ontology analyses show the top regulated pathways. (FIG. 36E) Heatmap of the top ER stress and UPR genes in these three TNBC cell lines after 2 h and 4 h treatment with 1 μM ERX-41 treatment. […] (FIG. 36G) Time course of the effect of 1 μM ERX-41 on the mRNA expression of canonical ER stress genes, HSPAS and DDIT3 and UPR stress sensor-sXBP1 in MDA-MB-231, BT-549 and HMEC cells.
(§1) The basal level of expression of endoplasmic reticulum stress and unfolded protein response correlates with TK41 activity (FIG. 28). Modulation of the level of these stress proteins affects the activity of TK41. Thus, the basal level of expression of endoplasmic reticulum stress and unfolded protein response proteins may serve as a biomarker to predict response to TK41. […] Without wishing to be bound by any particular theory, the mechanism of action of TK41 may operate comprise targeting either ER or TLX and inducing endoplasmic reticulum stress, subsequent apoptosis, and blocking autophagic fusion (FIG. 30).
(§2) ERX-41 induces endoplasmic reticulum stress in TNBC. To understand the mechanism of action of ERX-41 in TNBC, the inventors performed unbiased RNA sequencing studies in three TNBC (SUM-159, MDA-MB-231, and BT549) and normal HMEC cell lines (FIGS. 36A-C). […] Heatmaps show the induction of ER stress and UPR genes in these three TNBC cell lines (FIG. 36E). Evaluation of ER stress induction was then performed with ultrastructural studies using electron microscopy (EM) studies.
For orientation: A western blot detects proteins with antibodies after separation by electrophoresis.

A further assay has as its system HMEC cells. The assay can be described thus: ER stress induction in HMEC cells. Format: cell-based, human. Particulars: normal HMEC cells.
Source text: as §1, §2

For assay [3], the system named is pancreatic cancer MiaPaca cells. The experiment in a line: ER stress in pancreatic cancer cells by electron microscopy. Format: cell-based.
Source text: as §1

In assay [4] the test system is 22 human preclinical TNBC cell line models. The experiment in a line: CellTiter-Glo cell viability assay in TNBC cell lines. Format: cell-based. To be noted: 22 TNBC cell lines, read-out: IC50, CellTiter-Glo cell viability assays. An excerpt:
(§3) FIGS. 34A-C: Dose response curve of ERX-41 in multiple TNBC. cell lines using WST-1 assays (FIG. 34A) and CellTiter-Glo assays (FIG. 34B). […] Quantification of the number of dead cells over time seen with live cell imaging in MDAMB-231 and HMEC cells is shown.
(§4) To evaluate the generalizability of the inventors' findings, they evaluated ERX-41 in a large number of TNBC and ERa-positive cell lines.
Background: ATP-based viability assays read luminescence as a measure of living cells.

For assay [5], the system named is TNBC cells. The experiment in a line: Live cell imaging with SYTOX Green, TNBC. Format: cell-based. To be noted: within 30 hours of treatment.
Source text: as §3, §4

Another assay has as its system primary TNBC tumors. The experiment in a line: Ex vivo patient derived explant (PDE) cultures of TNBC. Format: cell-based, human. How it is done:
FIGS. 38A-E: LIPA is a viable molecular target in TNBC. (FIG. 38A) Kaplan-Meier curves show the correlation between expression levels of LAL with survival outcomes using a TCGA dataset with numerical tabulation below. (FIGS. 38B-D) Following surgical extirpation, primary TNBC tumors were cultured ex vivo either with vehicle or 1 μM ERX-41, as shown by the schematic (FIG. 38B). The effect on proliferation index (ki67) (FIG. 38C) and apoptosis markers (cleaved caspase 3) (FIG. 38D) is graphed. Representative immunohistochemical images of the effect of ERX-41 on ki67, cleaved caspase 3 and UPR genes shown (FIG. 38E).
ERX-41 has activity on human TNBC tumors. To ascertain that ERX-41 would have activity against primary TNBC tumors, the inventors leveraged their prior significant experience with the ex vivo patient derived explant (PDE) cultures […]. The PDE cultures, maintains the native tissue architecture and better recapitulates the heterogeneity of human TNBC in a laboratory setting.

A word on the IC50: it is the point on the concentration scale where inhibition reaches its midpoint.

For `CC(C)COc1cc(C(=O)Nc2ccc(C(=O)N[C@H]3CC[C@H](C)CC3)cc2OCC(C)C)ccc1NC(=O)c1ccc([N+](=O)[O-])c(OCCO)c1` [TK41], the half-inhibitory concentration (IC50) in assay [1] was roughly 100 nM; in assay [4], less than 250 nM. Moreover, the “induction of ER stress and UPR proteins (p-PERK, IRE1a, eiF2a, CHOP)” value with TNBC cells [2] (1 μM, western blotting, TNBC cells) is “induces ER stress and downstream UPR pathways”. Also, the “induction of endoplasmic reticulum stress” value in the assay with TNBC cells [2] (TNBC MD-MBA-231 cells) was “induce endoplasmic reticulum stress”. Moreover, in the assay on TNBC cells [2] (within 4 h of treatment, TNBC cells), the “dilation of the ER by electron microscopy” value was “induced dramatic dilation of the ER”. The “induction of endoplasmic reticulum stress in HMEC” value in the assay with HMEC cells is “does not induce endoplasmic reticulum stress”; in the assay on HMEC cells (listed as ERX-41), “unable to induce ER stress”. In assay [3], the “induction of endoplasmic reticulum stress in MiaPaca” value was “Endoplasmic reticulum stress was also induced”. Besides, the “cell death, share of cells” value in the assay on TNBC cells [5] was greater than 90%. In addition, in the assay with primary TNBC tumors (1 μM ex vivo), the “apoptosis (cleaved caspase 3 staining)” value was “increased apoptosis”. In addition, in the assay with primary TNBC tumors (1 μM ex vivo), the “proliferation (ki67 staining)” value is listed as “decreased proliferation”. The “UPR pathway markers by immunohistochemistry” value in the assay on primary TNBC tumors (within 24 h after treatment) was “enhanced pPERK, CHOP (protein product of DDIT3 gene) and peiF2a staining”.
